Molecules are shown by their SMILES.

One assay addresses human CB1 receptors (Homo sapiens (Human), UniProt P21554). Nature of the assay: functional cAMP assay, CB1. The format is cell-based. The settings on record: CHO cells expressing human CB1. As to the method:
(§1) The growth medium was exchanged with Krebs Ringer Bicarbonate buffer with 1 mM IBMX and incubated at 30° C. for 30 min. Compounds were added to a final assay volume of 100 μl and incubated for 30 min at 30° C. Using the cAMP-Nano-TRF detection kit the assay (Roche Diagnostics) was stopped by the addition of 50 μl lysis reagent (Tris, NaCl, 1.5% Triton X100, 2.5% NP40, 10% NaN3) and 50 μl detection solutions (20 μM mAb Alexa700-cAMP 1:1, and 48 μM Ruthenium-2-AHA-cAMP) and shaken for 2 h at room temperature. The time-resolved energy transfer is measured by a TRF reader (Evotec Technologies GmbH), equipped with a ND:YAG laser as excitation source. The plate is measured twice with the excitation at 355 nm and at the emission with a delay of 100 ns and a gate of 100 ns, total exposure time 10 s at 730 (bandwidth 30 nm) or 645 nm (bandwidth 75 nm), respectively.
(§2) EC50 values were determined using Activity Base analysis (ID Business Solution, Limited).

The next assay has as its target human CB2 receptors (Homo sapiens (Human), UniProt P34972). Kind of assay: functional cAMP assay, CB2. The format is cell-based. The following applies: CHO cells expressing human CB2. As to the method: as §1, §2
For orientation: Cyclic AMP is a second messenger, typically raised through Gs and lowered through Gi signalling.

Chain of human CB2 receptors (P34972 whole entry): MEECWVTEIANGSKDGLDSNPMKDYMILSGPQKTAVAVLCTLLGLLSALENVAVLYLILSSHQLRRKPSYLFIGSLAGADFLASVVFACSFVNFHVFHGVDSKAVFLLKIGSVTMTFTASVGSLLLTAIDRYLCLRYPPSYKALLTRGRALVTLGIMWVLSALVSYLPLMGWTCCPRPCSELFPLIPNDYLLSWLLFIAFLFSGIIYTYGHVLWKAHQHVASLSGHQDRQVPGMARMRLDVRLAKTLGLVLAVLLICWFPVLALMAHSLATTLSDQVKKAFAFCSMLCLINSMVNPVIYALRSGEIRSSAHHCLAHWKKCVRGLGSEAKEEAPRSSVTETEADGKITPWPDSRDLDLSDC
Chain of human CB1 receptors (P21554 whole entry): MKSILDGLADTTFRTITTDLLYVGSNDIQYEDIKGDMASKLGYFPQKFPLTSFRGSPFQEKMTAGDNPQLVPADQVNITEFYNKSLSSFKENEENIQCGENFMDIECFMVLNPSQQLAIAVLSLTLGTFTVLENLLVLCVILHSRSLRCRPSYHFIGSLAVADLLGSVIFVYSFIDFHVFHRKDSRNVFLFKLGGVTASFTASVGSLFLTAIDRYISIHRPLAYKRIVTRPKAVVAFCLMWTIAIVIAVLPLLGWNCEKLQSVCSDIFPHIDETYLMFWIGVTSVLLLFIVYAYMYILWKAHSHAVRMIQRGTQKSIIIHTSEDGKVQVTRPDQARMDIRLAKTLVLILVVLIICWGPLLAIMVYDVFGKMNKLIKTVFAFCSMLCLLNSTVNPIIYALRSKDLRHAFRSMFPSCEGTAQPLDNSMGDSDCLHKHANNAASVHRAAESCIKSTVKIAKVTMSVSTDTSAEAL

Broadly, the EC50 is the concentration needed to bring the measured effect to its halfway point. Read a high EC50 as a need for much substance. For the compound `CC(C)(C)c1nc(N2CCC(F)(F)C2)c2ncn(CC(=O)c3ccccc3Cl)c2n1` [Example 17, 2-[2-tert-butyl-6-(3,3-difluoropyrrolidin-1-yl)purin-9-yl]-1-(2-chlorophenyl)ethanone], the figures for the EC50 on human CB1 receptors and on human CB2 receptors were over 10000 nM and 3.5 nM, respectively.
Take `CC(C)(C)c1nc(N2CCC(F)(F)C2)c2ncn(Cc3ccccc3S(C)(=O)=O)c2n1` [Example 18, 2-tert-butyl-6-(3,3-difluoropyrrolidin-1-yl)-9-[(2-methylsulfonylphenyl)methyl]purine]: the EC50 on human CB1 receptors is over 10000 nM; at human CB2 receptors it was 3.3 nM.
Consider `COc1ccc(Cn2cnc3c(N4CCC(F)(F)C4)nc(C(C)(C)C)nc32)cc1` [Example 20, 2-tert-butyl-6-(3,3-difluoropyrrolidin-1-yl)-9-[(4-methoxyphenyl)methyl]purine], for which the EC50 was over 10000 nM on human CB1 receptors and 12.5 nM at human CB2 receptors.
Take `CC(C)(C)c1nc(N2CCC(F)(F)C2)c2ncn(Cc3ncccc3Cl)c2n1` [Example 21, 2-tert-butyl-9-[(3-chloropyridin-2-yl)methyl]-6-(3,3-difluoropyrrolidin-1-yl)purine]: the figures for the EC50 on human CB1 receptors and at human CB2 receptors were over 10000 nM and 2.2 nM, respectively.
For `CC(C)(C)c1nc(N2CCC(O)C2)c2ncn(Cc3ccccc3Cl)c2n1` (stereo not shown) [Example 22, 1-[2-tert-butyl-9-[(2-chlorophenyl)methyl]purin-6-yl]pyrrolidin-3-ol], the EC50 is over 10000 nM at human CB1 receptors and 5.7 nM on human CB2 receptors.
Turning to `CC(C)(C)c1nc(N2CCC(F)(F)C2)c2ncn(CCc3cccnc3)c2n1` [Example 23, 2-tert-butyl-6-(3,3-difluoropyrrolidin-1-yl)-9-(2-pyridin-3-ylethyl)purine], the EC50 on human CB1 receptors is over 10000 nM; on human CB2 receptors, 4.4 nM.
The like results for `CC(C)(C)c1nc(N2CCC(F)(F)C2)c2ncn(CC(=O)c3ccccn3)c2n1` [Example 24, 2-[2-tert-butyl-6-(3,3-difluoropyrrolidin-1-yl)purin-9-yl]-1-pyridin-2-ylethanone] were, in that order, over 10000 nM and 69.2 nM.
`CC(C)(C)c1nc(N2CCC(O)C2)c2ncn(Cc3cccc(Cl)c3)c2n1` (stereo not shown) [Example 25, 1-[2-tert-butyl-9-[(3-chlorophenyl)methyl]purin-6-yl]pyrrolidin-3-ol]: the concentration for a half-maximal effect (EC50) at human CB1 receptors is over 10000 nM; at human CB2 receptors, 58.8 nM.
The like results for `CC(C)(C)c1nc(N2CCC(F)(F)C2)c2ncn(C3CS(=O)(=O)C3)c2n1` [Example 27, 3-[2-tert-butyl-6-(3,3-difluoropyrrolidin-1-yl)purin-9-yl]thietane 1,1-dioxide] were, in that order, over 10000 nM and 14.1 nM.
The like results for `CC(C)(C)c1nc(N2CCC(O)C2)c2ncn(Cc3ccccc3C(F)(F)F)c2n1` (stereo not shown) [Example 28, 1-[2-tert-butyl-9-[[2-(trifluoromethyl)phenyl]methyl]purin-6-yl]pyrrolidin-3-ol] were, in that order, over 10000 nM and 1 nM.
The like results for `Cc1noc(Cn2cnc3c(N4CCC(O)C4)nc(C(C)(C)C)nc32)n1` (stereo not shown) [Example 29, 1-[2-tert-butyl-9-[(3-methyl-1,2,4-oxadiazol-5-yl)methyl]purin-6-yl]pyrrolidin-3-ol] were, in that order, over 10000 nM and 427 nM.
For `Cn1nnnc1Cn1cnc2c(N3CCC(O)C3)nc(C(C)(C)C)nc21` (stereo not shown) [Example 30, 1-[2-tert-butyl-9-[(1-methyltetrazol-5-yl)methyl]purin-6-yl]pyrrolidin-3-ol], the EC50 on human CB1 receptors was over 10000 nM; on human CB2 receptors it was 301 nM.
As to `COc1ccc(Cn2cnc3c(N4CCC(O)C4)nc(C(C)(C)C)nc32)cc1` (stereo not shown) [Example 31, 1-[2-tert-butyl-9-[(4-methoxyphenyl)methyl]purin-6-yl]pyrrolidin-3-ol], the EC50 is over 10000 nM on human CB1 receptors and 21.4 nM on human CB2 receptors.
`CC(C)(C)c1nc(N2CCC(O)C2)c2ncn(Cc3ncccc3Cl)c2n1` (stereo not shown) [Example 32, 1-[2-tert-butyl-9-[(3-chloropyridin-2-yl)methyl]purin-6-yl]pyrrolidin-3-ol]: the EC50 was over 10000 nM at human CB1 receptors and 3.4 nM on human CB2 receptors.
Regarding `CC(C)(C)c1nc(N2CCC(O)C2)c2ncn(Cc3cccnc3Cl)c2n1` (stereo not shown) [Example 33, 1-[2-tert-butyl-9-[(2-chloropyridin-3-yl)methyl]purin-6-yl]pyrrolidin-3-ol], the EC50 on human CB1 receptors was over 10000 nM; at human CB2 receptors, 3.4 nM.
On to `CC(C)(C)c1nc(N2CCC(O)C2)c2ncn(Cc3ccccc3S(C)(=O)=O)c2n1` (stereo not shown) [Example 34, 1-[2-tert-butyl-9-[(2-methylsulfonylphenyl)methyl]purin-6-yl]pyrrolidin-3-ol], for which the EC50 is over 10000 nM on human CB1 receptors and 9 nM on human CB2 receptors.
In the case of `CCn1cnc2c(N3CCC(O)C3)nc(C(C)(C)C)nc21` (stereo not shown) [Example 35, 1-(2-tert-butyl-9-ethylpurin-6-yl)pyrrolidin-3-ol], the EC50 on human CB1 receptors is over 10000 nM; on human CB2 receptors, 432 nM.
Turning to `COCCn1cnc2c(N3CCC(O)C3)nc(C(C)(C)C)nc21` (stereo not shown) [Example 37, 1-[2-tert-butyl-9-(2-methoxyethyl)purin-6-yl]pyrrolidin-3-ol], the EC50 on human CB1 receptors was over 10000 nM; at human CB2 receptors, 274 nM.
As to `CC(C)(C)c1nc(N2CCC(O)C2)c2ncn(CCc3ccccc3)c2n1` (stereo not shown) [Example 38, 1-[2-tert-butyl-9-(2-phenylethyl)purin-6-yl]pyrrolidin-3-ol], the EC50 on human CB1 receptors was over 10000 nM; at human CB2 receptors, 20.3 nM.
As to `Cc1ccc(Cn2cnc3c(N4CCC(O)C4)nc(C(C)(C)C)nc32)cc1` (stereo not shown) [Example 39, 1-[2-tert-butyl-9-[(4-methylphenyl)methyl]purin-6-yl]pyrrolidin-3-ol], the values for the EC50 at human CB1 receptors and on human CB2 receptors were over 10000 nM and 16.9 nM, respectively.
With `CC(C)(C)c1nc(N2CCC(O)C2)c2ncn(CC3CCCCC3)c2n1` (stereo not shown) [Example 40, 1-[2-tert-butyl-9-(cyclohexylmethyl)purin-6-yl]pyrrolidin-3-ol], the 50% effective concentration (EC50) on human CB1 receptors was over 10000 nM; on human CB2 receptors, 71.2 nM.
For the compound `CC(C)(C)c1nc(N2CCC(O)C2)c2ncn(Cc3ccc(F)cc3Cl)c2n1` (stereo not shown) [Example 42, 1-[2-tert-butyl-9-[(2-chloro-4-fluorophenyl)methyl]purin-6-yl]pyrrolidin-3-ol], the EC50 is over 10000 nM on human CB1 receptors and 3.7 nM on human CB2 receptors.
As for `Cc1nonc1Cn1cnc2c(N3CCC(O)C3)nc(C(C)(C)C)nc21` (stereo not shown) [Example 43, 1-[2-tert-butyl-9-[(4-methyl-1,2,5-oxadiazol-3-yl)methyl]purin-6-yl]pyrrolidin-3-ol], the EC50 at human CB1 receptors was over 10000 nM; at human CB2 receptors, 16.6 nM.
For the compound `CC(C)(C)c1nc(N2CCC(O)C2)c2ncn(Cc3c[nH]nc3C(F)(F)F)c2n1` (stereo not shown) [Example 44, 1-[2-tert-butyl-9-[[3-(trifluoromethyl)-1H-pyrazol-4-yl]methyl]purin-6-yl]pyrrolidin-3-ol], the EC50 was over 10000 nM at human CB1 receptors and 14.8 nM at human CB2 receptors.
The like results for `CC(C)(C)c1nc(N2CCC(O)C2)c2ncn(CCC(F)(F)F)c2n1` (stereo not shown) [Example 45, 1-[2-tert-butyl-9-(3,3,3-trifluoropropyl)purin-6-yl]pyrrolidin-3-ol] were, in that order, over 10000 nM and 49.6 nM.
The like results for `CC(C)(C)c1nc(N2CCC(O)C2)c2ncn(C3CCOC3)c2n1` (stereo not shown) [Example 46, 1-[2-tert-butyl-9-(oxolan-3-yl)purin-6-yl]pyrrolidin-3-ol] were, in that order, over 10000 nM and 139 nM.
`CC(C)(C)c1nc(N2CCC(O)C2)c2ncn(CC(=O)c3ccccc3Cl)c2n1` (stereo not shown) [Example 47, 2-[2-tert-butyl-6-(3-hydroxypyrrolidin-1-yl)purin-9-yl]-1-(2-chlorophenyl)ethanone]: the results for the EC50 at human CB1 receptors and at human CB2 receptors were over 10000 nM and 102 nM, respectively.
`CC(=O)N[C@H]1CCN(c2nc(C(C)(C)C)nc3c2ncn3Cc2cccc(Cl)c2)C1` [Example 49, N—[(S)-1-[2-tert-butyl-9-[(3-chlorophenyl)methyl]purin-6-yl]pyrrolidin-3-yl]acetamide]: the EC50 on human CB1 receptors is over 10000 nM; at human CB2 receptors, 311 nM.
In the case of `CC(=O)N[C@H]1CCN(c2nc(C(C)(C)C)nc3c2ncn3Cc2ccc(Cl)cc2)C1` [Example 50, N—[(S)-1-[2-tert-butyl-9-[(4-chlorophenyl)methyl]purin-6-yl]pyrrolidin-3-yl]acetamide], the values for the EC50 on human CB1 receptors and on human CB2 receptors were over 10000 nM and 534 nM, respectively.
`CC(=O)N[C@H]1CCN(c2nc(C(C)(C)C)nc3c2ncn3Cc2ccccc2C(F)(F)F)C1` [Example 51, N—[(S)-1-[2-tert-butyl-9-[[2-(trifluoromethyl)phenyl]methyl]purin-6-yl]pyrrolidin-3-yl]acetamide]: the values for the EC50 on human CB1 receptors and at human CB2 receptors were over 10000 nM and 64.7 nM, respectively.
For `CC(=O)N[C@H]1CCN(c2nc(C(C)(C)C)nc3c2ncn3Cc2ccccc2S(C)(=O)=O)C1` [Example 52, N—[(S)-1-[2-tert-butyl-9-[(2-methylsulfonylphenyl)methyl]purin-6-yl]pyrrolidin-3-yl]acetamide], the values for the EC50 at human CB1 receptors and at human CB2 receptors were over 10000 nM and 229 nM, respectively.
As to `CC(=O)N[C@H]1CCN(c2nc(C(C)(C)C)nc3c2ncn3Cc2cccnc2Cl)C1` [Example 53, N—[(S)-1-[2-tert-butyl-9-[(2-chloropyridin-3-yl)methyl]purin-6-yl]pyrrolidin-3-yl]acetamide], the EC50 is over 10000 nM on human CB1 receptors and 175 nM at human CB2 receptors.
